Measurements: ChEMBL document CHEMBL4420076, “Amylin and calcitonin receptor agonist” (2017)
pEC50, pIC50: −log10 of the molar value. Numbered stars: 1 amine (or outer) side, 2 acyl side, 3 side chain; on linkers, the order of the positions; unused ones are H or OH. Peptide text beside a SMILES is read from it. * marks the point of attachment. C20 diacid = O=C(O)CCCCCCCCCCCCCCCCCCC(=O)*; C18 diacid = O=C(O)CCCCCCCCCCCCCCCCC(=O)*; γGlu = O=C(O)[C@H](CCC(=O)[*:2])N[*:1]; C14 diacid = O=C(O)CCCCCCCCCCCCC(=O)*

Key:
[1] = Solubility in 100 mM bistrispropane buffer at pH 8.0 incubated for 18 hrs by UPLC analysis; type: physicochemical
[2] = Solubility in 100 mM glycylglycine buffer at pH 3.0 incubated for 18 hrs by UPLC analysis; type: physicochemical
[3] = target: T1, Amylin receptor AMY3; CALCR/RAMP3 (Homo sapiens, UniProt O60896+P30988); assay: Displacement of [125I]-labeled rat amylin from human amylin receptor expressed in BHK570 cell membranes co-expressing RAMP3 incubated for 120 mins by scintillation proximity assay
T1 sequence (P30988 whole entry): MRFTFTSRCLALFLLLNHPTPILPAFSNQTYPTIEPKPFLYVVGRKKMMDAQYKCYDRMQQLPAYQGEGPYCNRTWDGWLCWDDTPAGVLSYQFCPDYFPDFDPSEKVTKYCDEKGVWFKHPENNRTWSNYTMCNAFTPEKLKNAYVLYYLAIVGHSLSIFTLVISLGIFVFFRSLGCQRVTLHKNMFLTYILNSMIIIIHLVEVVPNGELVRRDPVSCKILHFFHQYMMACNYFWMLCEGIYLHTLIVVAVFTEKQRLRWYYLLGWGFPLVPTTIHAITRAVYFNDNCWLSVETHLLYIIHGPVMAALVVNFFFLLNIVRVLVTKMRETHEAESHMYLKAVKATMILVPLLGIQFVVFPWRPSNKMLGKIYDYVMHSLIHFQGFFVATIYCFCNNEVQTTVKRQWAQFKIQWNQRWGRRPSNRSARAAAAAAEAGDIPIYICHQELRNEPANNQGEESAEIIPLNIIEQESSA
T1 sequence (O60896 whole entry): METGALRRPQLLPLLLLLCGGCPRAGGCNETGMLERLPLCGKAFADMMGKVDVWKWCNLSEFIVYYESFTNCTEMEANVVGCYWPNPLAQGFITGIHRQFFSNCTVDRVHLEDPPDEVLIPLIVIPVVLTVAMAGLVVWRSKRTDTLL

[4] = Stability in pH 7.5 buffer assessed as lag time for fibril formation at 1 uM by Thioflavin T based fluorescence assay; type: physicochemical; conditions: pH 7.5, 1 µM
[5] = Solubility in 100 mM bistrispropane buffer at pH 6.5 incubated for 18 hrs by UPLC analysis; type: physicochemical
Calcitonin receptor [6] = target: T2, Calcitonin receptor (Homo sapiens, UniProt P30988); assay: Displacement of [125I]-labeled human calcitonin from human calcitonin receptor expressed in BHK tkts13 cell membranes incubated for 1 hr by scintillation proximity assay
T2 sequence (P30988 whole entry): T1 sequence (P30988 whole entry)

[7] = Solubility in 100 mM bistrispropane buffer at pH 7.5 incubated for 18 hrs by UPLC analysis; type: physicochemical
[8] = Stability in pH 7.5 buffer assessed as compound recovery at 1 uM by Thioflavin T based fluorescence assay; type: physicochemical; conditions: read-out: Drug recovery
[9] = target: T3, Amylin receptor AMY3; CALCR/RAMP3 (Rattus norvegicus, UniProt P32214+Q9JJ73); assay: Displacement of [125I]-labeled rat amylin from rat amylin receptor expressed in BHK tkts13 cell membranes co-expressing RAMP3 incubated for 120 mins by scintillation proximity assay
T3 sequence (P32214 whole entry): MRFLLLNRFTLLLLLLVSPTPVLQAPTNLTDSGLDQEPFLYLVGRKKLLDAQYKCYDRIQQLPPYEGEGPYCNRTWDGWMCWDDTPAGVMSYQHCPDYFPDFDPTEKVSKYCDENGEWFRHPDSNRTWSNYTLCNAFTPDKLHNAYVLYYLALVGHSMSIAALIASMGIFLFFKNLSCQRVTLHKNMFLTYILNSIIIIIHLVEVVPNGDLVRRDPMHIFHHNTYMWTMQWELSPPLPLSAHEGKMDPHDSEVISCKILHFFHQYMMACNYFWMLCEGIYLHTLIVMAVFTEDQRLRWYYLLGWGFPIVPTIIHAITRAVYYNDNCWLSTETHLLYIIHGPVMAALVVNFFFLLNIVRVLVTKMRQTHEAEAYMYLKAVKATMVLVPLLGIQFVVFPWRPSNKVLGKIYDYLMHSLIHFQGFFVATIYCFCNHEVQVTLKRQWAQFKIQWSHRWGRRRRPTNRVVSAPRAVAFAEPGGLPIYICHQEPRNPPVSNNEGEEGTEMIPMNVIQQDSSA
T3 sequence (Q9JJ73 whole entry): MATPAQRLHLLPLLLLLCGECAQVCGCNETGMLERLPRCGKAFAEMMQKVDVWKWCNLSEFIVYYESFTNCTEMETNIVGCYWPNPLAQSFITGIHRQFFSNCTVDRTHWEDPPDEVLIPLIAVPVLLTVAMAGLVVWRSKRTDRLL

[10] = target: T1, Amylin receptor AMY3; CALCR/RAMP3; assay: Agonist activity at human amylin receptor expressed in BHK570 cells co-expressing RAMP3 assessed as increase in intracellular cAMP concentration incubated for 3 hrs in absence of albumin by CRE luciferase reporter gene assay; type: functional, cell-based
[11] = Solubility in 100 mM bistrispropane buffer at pH 7.0 incubated for 18 hrs by UPLC analysis; type: physicochemical
[12] = Solubility in 100 mM glycylglycine buffer at pH 5.0 incubated for 18 hrs by UPLC analysis; type: physicochemical
[13] = Solubility in 100 mM bistrispropane buffer at pH 6.0 incubated for 18 hrs by UPLC analysis; type: physicochemical
[14] = Solubility in 100 mM glycylglycine buffer at pH 4.0 incubated for 18 hrs by UPLC analysis; type: physicochemical
Calcitonin receptor [15] = target: T2, Calcitonin receptor; assay: Agonist activity at human calcitonin receptor expressed in BHK570 cells assessed as increase in intracellular cAMP concentration incubated for 3 hrs in absence of albumin by CRE luciferase reporter gene assay; type: functional, cell-based
Rattus norvegicus [16] = assay: Reduction in food intake in Sprague-Dawley rat at 3 nmol/kg measured 0 to 24 hrs post dose relative to control; type: functional; set-up: scale not given: the % may be the effect or the level left
[17] = target: T1, Amylin receptor AMY3; CALCR/RAMP3; assay: Agonist activity at human amylin receptor expressed in BHK570 cells co-expressing RAMP3 assessed as increase in intracellular cAMP concentration incubated for 3 hrs in presence of 10% FBS by CRE luciferase reporter gene assay; type: functional, cell-based
Calcitonin receptor [18] = target: T2, Calcitonin receptor; assay: Agonist activity at human calcitonin receptor expressed in BHK570 cells assessed as increase in intracellular cAMP concentration incubated for 3 hrs in presence of 10% FBS by CRE luciferase reporter gene assay; type: functional, cell-based
Rattus norvegicus [19] = assay: Reduction in food intake in Sprague-Dawley rat at 3 nmol/kg measured 24 to 48 hrs post dose relative to control; type: functional; set-up: scale not given: the % may be the effect or the level left
[20] = target: T1, Amylin receptor AMY3; CALCR/RAMP3; assay: Displacement of [125I]-labeled rat amylin from human amylin receptor expressed in BHK tkts13 whole cells co-expressing RAMP3 incubated for 60 mins by scintillation proximity assay; type: cell-based

Row | solubility at 18 h [1] | solubility at 18 h [2] | pIC50 [3] | Time [4] | solubility at 18 h [5] | pIC50 (Calcitonin receptor [6]) | solubility at 18 h [7] | remaining at 1 µM [8] | pIC50 [9] | pEC50 [10] | solubility at 18 h [11] | solubility at 18 h [12] | solubility at 18 h [13] | solubility at 18 h [14] | pEC50 (Calcitonin receptor [15]) | pEC50 [17] | pEC50 (Calcitonin receptor [18]) | pIC50 [20] | SMILES | Activity (Rattus norvegicus [16]) | Activity (Rattus norvegicus [19])
1 | ≥ 200 µM | ≥ 200 µM | 10.27 | > 45 h | ≥ 200 µM | 10.64 | ≥ 200 µM | 98% | 9.91 | 11.22 | ≥ 200 µM | ≥ 200 µM | ≥ 200 µM | ≥ 200 µM | 11.40 | – | – | – | CC(C)C[C@H](NC(=O)[C@H](C)NC(=O)[C@H](C)NC(=O)[C@@H](NC(=O)[C@H](CO)NC(=O)[C@H](CC(C)C)NC(=O)[C@H](CCC(=O)O)NC(=O)[C@H](CO)NC(=O)[C@H](C)NC(=O)CC[C@H](NC(=O)CCCCCCCCCCCCC(=O)O)C(=O)O)[C@@H](C)O)C(=O)NCC(=O)N[C@@H](CCCNC(=N)N)C(=O)N[C@@H](CC(C)C)C(=O)N[C@@H](CO)C(=O)N[C@@H](C)C(=O)N[C@@H](CCC(=O)O)C(=O)N[C@@H](CC(C)C)C(=O)N[C@@H](Cc1cnc[nH]1)C(=O)N[C@@H](CCC(=O)O)C(=O)N[C@@H](CC(C)C)C(=O)N[C@@H](C)C(=O)N[C@H](C(=O)N[C@@H](CC(C)C)C(=O)N1CCC[C@H]1C(=O)N[C@@H](CCCNC(=N)N)C(=O)N[C@H](C(=O)N[C@@H](CCC(=O)O)C(=O)N[C@H](C(=O)NCC(=O)N[C@@H](CO)C(=O)NCC(=O)N[C@@H](CO)C(=O)N1CCC[C@H]1C(N)=O)[C@@H](C)O)[C@@H](C)O)[C@@H](C)O ({C14 diacid-γGlu}-ASELSTAALGRLSAELHELATLPRTETGSGSP-NH2) | – | –
2 | ≥ 200 µM | ≥ 200 µM | 10.11 | – | ≥ 200 µM | 10.47 | ≥ 200 µM | – | 10.20 | 10.74 | ≥ 200 µM | ≥ 200 µM | ≥ 200 µM | ≥ 200 µM | 10.77 | 11.05 | 11.10 | – | CC(C)C[C@H](NC(=O)[C@H](C)NC(=O)[C@H](C)NC(=O)[C@@H](NC(=O)[C@H](CO)NC(=O)[C@H](CC(C)C)NC(=O)[C@H](CCC(=O)O)NC(=O)[C@H](CO)NC(=O)[C@H](C)NC(=O)CCCCCCCCCCCCCCCCC(=O)O)[C@@H](C)O)C(=O)NCC(=O)N[C@@H](CCCNC(=N)N)C(=O)N[C@@H](CC(C)C)C(=O)N[C@@H](CO)C(=O)N[C@@H](C)C(=O)N[C@@H](CCC(=O)O)C(=O)N[C@@H](CC(C)C)C(=O)N[C@@H](Cc1cnc[nH]1)C(=O)N[C@@H](CCC(=O)O)C(=O)N[C@@H](CC(C)C)C(=O)N[C@@H](C)C(=O)N[C@H](C(=O)N[C@@H](CC(C)C)C(=O)N1CCC[C@H]1C(=O)N[C@@H](CCCNC(=N)N)C(=O)N[C@H](C(=O)N[C@@H](CCC(=O)O)C(=O)N[C@H](C(=O)NCC(=O)N[C@@H](CO)C(=O)NCC(=O)N[C@@H](CO)C(=O)N1CCC[C@H]1C(N)=O)[C@@H](C)O)[C@@H](C)O)[C@@H](C)O ({C18 diacid}-ASELSTAALGRLSAELHELATLPRTETGSGSP-NH2) | 52% | 11%
3 | ≥ 200 µM | ≥ 200 µM | 10.24 | > 45 h | ≥ 200 µM | 10.47 | ≥ 200 µM | 100% | 10.34 | 10.28 | ≥ 200 µM | ≥ 200 µM | ≥ 200 µM | ≥ 200 µM | 10.32 | – | 10.14 | 8.97 | CC(C)C[C@H](NC(=O)[C@H](C)NC(=O)[C@H](C)NC(=O)[C@@H](NC(=O)[C@H](CO)NC(=O)[C@H](CC(C)C)NC(=O)[C@H](CCC(=O)O)NC(=O)[C@H](CO)NC(=O)[C@H](C)NC(=O)CC[C@H](NC(=O)CCCCCCCCCCCCCCCCCCC(=O)O)C(=O)O)[C@@H](C)O)C(=O)NCC(=O)N[C@@H](CCCNC(=N)N)C(=O)N[C@@H](CC(C)C)C(=O)N[C@@H](CO)C(=O)N[C@@H](C)C(=O)N[C@@H](CCC(=O)O)C(=O)N[C@@H](CC(C)C)C(=O)N[C@@H](Cc1cnc[nH]1)C(=O)N[C@@H](CCC(=O)O)C(=O)N[C@@H](CC(C)C)C(=O)N[C@@H](C)C(=O)N[C@H](C(=O)N[C@@H](CC(C)C)C(=O)N1CCC[C@H]1C(=O)N[C@@H](CCCNC(=N)N)C(=O)N[C@H](C(=O)N[C@@H](CCC(=O)O)C(=O)N[C@H](C(=O)NCC(=O)N[C@@H](CO)C(=O)NCC(=O)N[C@@H](CO)C(=O)N[C@@H](Cc1cnc[nH]1)C(N)=O)[C@@H](C)O)[C@@H](C)O)[C@@H](C)O ({C20 diacid-γGlu}-ASELSTAALGRLSAELHELATLPRTETGSGSH-NH2) | – | –
4 | ≥ 200 µM | ≥ 200 µM | 9.82 | 1.5 h | ≥ 200 µM | 10.17 | ≥ 200 µM | 39.5% | 10.28 | 10.14 | ≥ 200 µM | – | ≥ 200 µM | – | 10.31 | – | 10.21 | – | CC(C)C[C@H](NC(=O)CNC(=O)[C@H](CO)NC(=O)[C@H](C)NC(=O)CC[C@H](NC(=O)CCCCCCCCCCCCCCCCCCC(=O)O)C(=O)O)C(=O)N[C@@H](CO)C(=O)N[C@H](C(=O)N[C@@H](C)C(=O)N[C@H](C(=O)N[C@@H](CC(C)C)C(=O)NCC(=O)N[C@@H](CCCNC(=N)N)C(=O)N[C@@H](CC(C)C)C(=O)N[C@@H](CO)C(=O)N[C@@H](CCC(N)=O)C(=O)N[C@@H](CCC(=O)O)C(=O)N[C@@H](CC(C)C)C(=O)N[C@@H](Cc1cnc[nH]1)C(=O)N[C@@H](CCC(=O)O)C(=O)N[C@@H](CC(C)C)C(=O)N[C@@H](CCC(N)=O)C(=O)N[C@H](C(=O)N[C@@H](Cc1ccc(O)cc1)C(=O)N1CCC[C@H]1C(=O)N[C@@H](CCCNC(=N)N)C(=O)N[C@H](C(=O)N[C@@H](CCC(=O)O)C(=O)N[C@H](C(=O)NCC(=O)N[C@@H](CO)C(=O)N[C@@H](CCC(N)=O)C(=O)N[C@H](C(=O)N[C@@H](Cc1ccc(O)cc1)C(N)=O)[C@@H](C)O)[C@@H](C)O)[C@@H](C)O)[C@@H](C)O)C(C)C)[C@@H](C)O ({C20 diacid-γGlu}-ASGLSTAVLGRLSQELHELQTYPRTETGSQTY-NH2) | 25% | 29%
